Counter-ions that a name gives are not always drawn.

TrkA, sequence (P04629 33-796): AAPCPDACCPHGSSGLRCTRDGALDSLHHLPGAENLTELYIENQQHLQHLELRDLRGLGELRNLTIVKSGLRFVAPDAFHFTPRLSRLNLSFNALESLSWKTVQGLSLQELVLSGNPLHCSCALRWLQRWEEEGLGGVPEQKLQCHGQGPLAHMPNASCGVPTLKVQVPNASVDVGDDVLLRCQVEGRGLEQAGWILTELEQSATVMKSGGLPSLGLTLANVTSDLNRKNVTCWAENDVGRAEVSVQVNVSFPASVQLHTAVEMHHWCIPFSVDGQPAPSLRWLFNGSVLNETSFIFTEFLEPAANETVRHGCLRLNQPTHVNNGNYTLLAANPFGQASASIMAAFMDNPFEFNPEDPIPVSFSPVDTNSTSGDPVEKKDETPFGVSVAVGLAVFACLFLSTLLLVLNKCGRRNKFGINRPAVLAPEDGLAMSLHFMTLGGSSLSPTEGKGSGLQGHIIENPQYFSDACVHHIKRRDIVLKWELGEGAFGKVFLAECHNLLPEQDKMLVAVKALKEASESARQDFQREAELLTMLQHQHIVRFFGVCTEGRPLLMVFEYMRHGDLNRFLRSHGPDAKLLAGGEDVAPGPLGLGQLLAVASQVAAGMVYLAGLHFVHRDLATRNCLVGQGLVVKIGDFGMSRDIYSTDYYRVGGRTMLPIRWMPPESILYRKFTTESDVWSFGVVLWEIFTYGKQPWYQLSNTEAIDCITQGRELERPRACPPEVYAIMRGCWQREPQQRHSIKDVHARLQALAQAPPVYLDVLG

The experiment addresses TrkA (Homo sapiens (Human), UniProt P04629). The experiment in a line: TrkA Omnia Assay. The format is biochemical. To be noted: averaged IC50; 20 nM enzyme, 500 μM ATP, 10 μM peptide substrate. A digest of the protocol: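 Recombinant TrkA (20 nM) preincubated 10 min at ambient temperature with compound, then Omnia Tyr Peptide #4 (10 μM) and ATP (500 μM) added in 25 mM MOPS pH 7.5, 5 mM MgCl2, 0.005% Triton X-100. Fluorescence (ex 360/em 485 nm) followed continuously for 70 min; IC50 from initial rates by 4- or 5-parameter logistic fit.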
Compound `COCC(CO)N1C[C@@H](NC(=O)Nc2c(Cl)c(-c3cnn(C)c3)nn2-c2ccccc2)[C@H](c2ccc(F)c(F)c2)C1` (some centres unmarked) [Example 264] showed an IC50 of less than 100 nM. Under `COCCN1C[C@@H](NC(=O)Nc2cc(-c3ccc(SC)cc3)nn2C)[C@H](c2ccc(F)c(F)c2)C1` [Example 125, 1-((3S,4R)-4-(3,4-difluorophenyl)-1-(2-methoxyethyl)pyrrolidin-3-yl)-3-(1-methyl-3-(4-(methylthio)phenyl)-1H-pyrazol-5-yl)urea] stands less than 100 nM. Next, `COCCN1C[C@@H](NC(=O)Nc2c(C)c(OCCO)nn2-c2ccccc2)[C@H](c2cc(F)cc(F)c2)C1` [Example 149, 1-((3S,4R)-4-(3,5-difluorophenyl)-1-(2-methoxyethyl)pyrrolidin-3-yl)-3-(3-(2-hydroxy-ethoxy)-4-methyl-1-phenyl-1H-pyrazol-5-yl)urea]: less than 100 nM. Under `COCCOc1nn(-c2ccccc2)c(NC(=O)N[C@@H]2CN(CC(F)(F)F)C[C@H]2c2ccccc2)c1C` (relative stereo) [Example 196, 1-(3-(2-methoxyethoxy)-4-methyl-1-phenyl-1H-pyrazol-5-yl)-3-((trans)-4-phenyl-1-(2,2,2-trifluoroethyl)pyrrolidin-3-yl)urea] stands less than 100 nM; under `COCCN1C[C@@H](NC(=O)Nc2cc(-c3ccc(F)cc3)nn2C)[C@H](c2cccc(F)c2)C1` [Example 112, 1-((3S,4R)-4-(3-fluoro-phenyl)-1-(2-methoxy-ethyl)pyrrolidin-3-yl)-3-(3-(4-fluorophenyl)-1-methyl-1H-pyrazol-5-yl)urea], less than 100 nM; under `COCCN1C[C@@H](NC(=O)Nc2c3c(nn2-c2cccc(F)c2)CCC3)[C@H](c2ccccc2)C1` (relative stereo) [Example 22, 1-(2-(3-fluorophenyl)-2,4,5,6-tetrahydrocyclopenta[c]pyrazol-3-yl)-3-(trans-1-(2-methoxyethyl)-4-phenylpyrrolidin-3-yl)urea], less than 100 nM. `COCCN1C[C@@H](NC(=O)Nc2cc(C(C)(C)C)nn2-c2ccc(C)cc2)[C@H](c2ccccc2)C1` (relative stereo) [Example 2, 1-(3-tert-butyl-1-p-tolyl-1H-pyrazol-5-yl)-3-(trans-1-(2-methoxyethyl)-4-phenylpyrrolidin-3-yl) urea hydrochloride]: the IC50 lay in the range of 1000 to 10000 nM. Next, `COCCN1C[C@@H](NC(=O)Nc2c3c(nn2-c2ccccc2)CCC3)[C@H](c2cc(F)cc(F)c2)C1` [Example 84, 1-((3S,4R)-4-(3,5-difluoro-phenyl)-1-(2-methoxyethyl)pyrrolidin-3-yl)-3-(2-phenyl-2,4,5,6-tetrahydro-cyclopenta[c]pyrazol-3-yl)urea]: less than 100 nM; `COCCN1C[C@@H](NC(=O)Nc2cc(-c3ccc(OC)cc3)nn2C)[C@H](c2ccccc2)C1` [Example 108, 1-((3S,4R)-1-(2-methoxy-ethyl)-4-phenylpyrrolidin-3-yl)-3-(3-(4-methoxy-phenyl)-1-methyl-1H-pyrazol-5-yl)urea]: less than 100 nM. Next, `COCCN1C[C@@H](NC(=O)Nc2c(C)c(C3CC3)nn2-c2ccccc2)[C@H](c2ccc(F)c(F)c2)C1` [Example 533, 1-(3-cyclopropyl-4-methyl-1-phenyl-1H-pyrazol-5-yl)-3-((3S,4R)-4-(3,4-difluorophenyl)-1-(2-methoxyethyl)pyrrolidin-3-yl)urea]: less than 100 nM; `COCCN1C[C@@H](NC(=O)Nc2c(F)c(-c3cnn(C)c3)nn2-c2ccccc2)[C@H](c2ccc(F)c(F)c2)C1` [Example 438, 1-((3S,4R)-4-(3,4-difluorophenyl)-1-(2-methoxyethyl)pyrrolidin-3-yl)-3-(4-fluoro-1′-methyl-1-phenyl-1H,1′H-[3,4′-bipyrazol]-5-yl)urea]: less than 100 nM.

For the compound `COCCN1C[C@@H](NC(=O)Nc2c(C(N)=O)c(OC)nn2-c2ccccc2)[C@H](c2ccc(F)c(F)c2)C1` [Example 619, 5-(3-((3S,4R)-4-(3,4-difluorophenyl)-1-(2-methoxyethyl)pyrrolidin-3-yl)ureido)-3-methoxy-1-phenyl-1H-pyrazole-4-carboxamide], the IC50 was less than 100 nM. `COCCN1C[C@@H](NC(=O)Nc2c(C)c(OC[C@H](C)O)nn2-c2ccccc2)[C@H](c2ccc(F)c(F)c2)C1` [Example 179, 1-((3S,4R)-4-(3,4-difluorophenyl)-1-(2-methoxyethyl)pyrrolidin-3-yl)-3-(3-((S)-2-hydroxypropoxy)-4-methyl-1-phenyl-1H-pyrazol-5-yl)urea hydrochloride] had an IC50 of less than 100 nM. Under `COCCN1C[C@@H](NC(=O)Nc2c(C)c(-c3ccccc3)nn2-c2ccccc2)[C@H](c2cncc(F)c2)C1` (relative stereo) [Example 344, 1-(trans-4-(5-fluoropyridin-3-yl)-1-(2-methoxyethyl)pyrrolidin-3-yl)-3-(4-methyl-1,3-diphenyl-1H-pyrazol-5-yl)urea] stands less than 100 nM. Next, `COCCN1C[C@@H](NC(=O)Nc2c(C)c(OC[C@@H](O)COC)nn2-c2ccccc2)[C@H](c2ccc(F)c(F)c2)C1` [Example 562, 1-((3S,4R)-4-(3,4-difluorophenyl)-1-(2-methoxyethyl)pyrrolidin-3-yl)-3-(3-((S)-2-hydroxy-3-methoxypropoxy)-4-methyl-1-phenyl-1H-pyrazol-5-yl)urea]: less than 100 nM; `COCC(C(=O)OC)N1CC(NC(=O)Nc2c3c(nn2-c2ccccc2)CCC3)[C@H](c2ccccc2)C1` (stereo in doubt) [Example 258, methyl 3-methoxy-2-((trans)-3-phenyl-4-(3-(2-phenyl-2,4,5,6-tetrahydrocyclopenta[c]pyrazol-3-yl)ureido)pyrrolidin-1-yl)propanoate]: less than 100 nM. Under `COCCN1C[C@@H](NC(=O)Nc2c(C)c([C@H]3C[C@H](O)C3)nn2-c2ccccc2)[C@H](c2cc(F)cc(F)c2)C1` [Example 457, 1-((3S,4R)-4-(3,5-difluorophenyl)-1-(2-methoxyethyl)pyrrolidin-3-yl)-3-(3-(trans-3-hydroxycyclobutyl)-4-methyl-1-phenyl-1H-pyrazol-5-yl)urea] stands less than 100 nM; under `O=C(Nc1c2c(nn1-c1ccccc1)CCC2)N[C@@H]1CN(CC(F)(F)F)C[C@H]1c1ccccc1` (relative stereo) [Example 194, 1-((trans)-4-phenyl-1-(2,2,2-trifluoroethyl)pyrrolidin-3-yl)-3-(2-phenyl-2,4,5,6-tetrahydrocyclopenta[c]pyrazol-3-yl)urea], less than 100 nM. On to `COCCN1C[C@@H](NC(=O)Nc2c(C)c(C(F)(F)CO)nn2-c2ccccc2)[C@H](c2ccc(F)c(F)c2)C1` [Example 282, 1-(3-(1,1-difluoro-2-hydroxyethyl)-4-methyl-1-phenyl-1H-pyrazol-5-yl)-3-((3S,4R)-4-(3,4-difluorophenyl)-1-(2-methoxyethyl)pyrrolidin-3-yl)urea], for which the IC50 is less than 100 nM. Under `COCCN1C[C@@H](NC(=O)Nc2c(C)c(-c3cc(C)n(C)n3)nn2-c2ccccc2)[C@H](c2cc(F)cc(F)c2)C1` [Example 306, 1-((3S,4R)-4-(3,5-difluorophenyl)-1-(2-methoxyethyl)pyrrolidin-3-yl)-3-(1′,4,5′-trimethyl-1-phenyl-1H,1′H-[3,3′-bipyrazol]-5-yl)urea] stands less than 100 nM.

The record behind these values is patent publication US10323022B2, “Pyrrolidinyl urea, pyrrolidinyl thiourea and pyrrolidinyl guanidine compounds as TrkA kinase inhibitors” (Array BioPharma Inc., priority 2011, dated 2019).
